PubChem BioAssay AID192 (DTP/NCI, 2004)
Several values for one entry are separate records, joined by “and”; a condition that tells them apart may be missing. Identical values can stand only once. Inconclusive results and toxic doses are left out. Peptide text beside a SMILES is read from it. * marks the point of attachment. Trt = c1ccc(C(c2ccccc2)(c2ccccc2)*)cc1; Cbz = O=C(OCc1ccccc1)*; Bn = c1ccc(C*)cc1; βAla = NCCC(=O)O

Test system: BDF1 mice, B16 melanoma ip, median survival T/C
Assay: NCI In Vivo Anticancer Drug Screen. Data for tumor model B16 Melanoma (intraperitoneal) in B6D2F1 (BDF1) mice
Settings: endpoint: median survival time, higher = longer survival
Summary of the method: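 Values are ratios of treated (T) to vehicle-control (C) measurements of survival or tumor size in tumor-bearing mice.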

[1] = dose: 12.5 mg/kg/injection, schedule: Q01DX009 (ip), vehicle: Klucel (hydroxypropylcellulose) (HPC)
[2] = dose: 25.0 mg/kg/injection, schedule: Q01DX009 (ip), vehicle: Klucel (hydroxypropylcellulose) (HPC)
[3] = dose: 50.0 mg/kg/injection, schedule: Q01DX009 (ip), vehicle: Klucel (hydroxypropylcellulose) (HPC)
[4] = dose: 12.5 mg/kg/injection, schedule: Q01DX009 (ip), vehicle: saline
[5] = dose: 25.0 mg/kg/injection, schedule: Q01DX009 (ip), vehicle: saline
[6] = dose: 50.0 mg/kg/injection, schedule: Q01DX009 (ip), vehicle: saline
[7] = dose: 100.0 mg/kg/injection, schedule: Q04DX003 (ip), vehicle: Klucel (hydroxypropylcellulose) (HPC)
[8] = dose: 200.0 mg/kg/injection, schedule: Q04DX003 (ip), vehicle: Klucel (hydroxypropylcellulose) (HPC)
[9] = dose: 50.0 mg/kg/injection, schedule: Q04DX003 (ip), vehicle: Klucel (hydroxypropylcellulose) (HPC)
[10] = dose: 25.0 mg/kg/injection, schedule: Q01DX009 (ip), vehicle: water
[11] = dose: 50.0 mg/kg/injection, schedule: Q01DX009 (ip), vehicle: water
[12] = dose: 100.0 mg/kg/injection, schedule: Q01DX009 (ip), vehicle: water
[13] = dose: 200.0 mg/kg/injection, schedule: Q01DX009 (ip), vehicle: water
[14] = dose: 100.0 mg/kg/injection, schedule: Q01DX009 (ip), vehicle: saline
[15] = dose: 100.0 mg/kg/injection, schedule: Q01DX009 (ip), vehicle: Klucel (hydroxypropylcellulose) (HPC)
[16] = dose: 200.0 mg/kg/injection, schedule: Q01DX009 (ip), vehicle: saline
[17] = dose: 200.0 mg/kg/injection, schedule: Q01DX009 (ip), vehicle: Klucel (hydroxypropylcellulose) (HPC)

COc1cc2cc(c1Cl)N(C)C(=O)CC(OC(=O)CC(C)C)C1(C)OC1C(C)C1CC(O)(NC(=O)O1)C(OC)/C=C/C=C(C)C2 (centres undefined)
T/C (dose: 3.1 micrograms/kg/injection, schedule: Q01DX009 (ip), vehicle: saline + alcohol): 122 % of control
T/C (dose: 6.25 micrograms/kg/injection, schedule: Q01DX009 (ip), vehicle: saline + alcohol): 150 % of control and 160 % of control
T/C (dose: 12.5 micrograms/kg/injection, schedule: Q01DX009 (ip), vehicle: saline + alcohol): 157 % of control and 169 % of control and 173 % of control
T/C (dose: 15.0 micrograms/kg/injection, schedule: Q01DX009 (ip), vehicle: saline + alcohol): 170 % of control
T/C (dose: 25.0 micrograms/kg/injection, schedule: Q01DX009 (ip), vehicle: saline + alcohol): 164 % of control and 168 % of control and 183 % of control
T/C (dose: 30.0 micrograms/kg/injection, schedule: Q01DX009 (ip), vehicle: saline + alcohol): 179 % of control
T/C (dose: 50.0 micrograms/kg/injection, schedule: Q01DX009 (ip), vehicle: saline + alcohol): 163 % of control
T/C (dose: 60.0 micrograms/kg/injection, schedule: Q01DX009 (ip), vehicle: saline + alcohol): 191 % of control

C1CC[N-]CC1.C1CC[N-]CC1.C1CC[N-]CC1.C1CC[N-]CC1.N#C[S-].N#C[S-].[Ni]
T/C (dose: 5.0 mg/kg/injection, schedule: Q01DX009 (ip), vehicle: saline with Tween-80): 92 % of control
T/C (dose: 10.0 mg/kg/injection, schedule: Q01DX009 (ip), vehicle: saline with Tween-80): 104 % of control

C=C(CCCCC)C(=O)/C=C/c1ccc(Cl)cc1
T/C (dose: 75.0 mg/kg/injection, schedule: Q04DX003 (ip), vehicle: Klucel (hydroxypropylcellulose) (HPC)): 94 % of control
T/C (dose: 150.0 mg/kg/injection, schedule: Q04DX003 (ip), vehicle: Klucel (hydroxypropylcellulose) (HPC)): 94 % of control

COC1C(CO)OC(n2cnc3c(=S)nc(N)[nH]c32)C1O (centres undefined)
T/C [1]: 112 % of control
T/C [2]: 103 % of control
T/C [3]: 108 % of control

CC1=CC(=O)N(NC(N)=O)C1=O
T/C [4]: 107 % of control
T/C [5]: 96 % of control
T/C [6]: 87 % of control

CCOC(=O)C(O)C(C#N)c1ccccc1 (centres undefined)
T/C (dose: 100.0 mg/kg/injection, schedule: Q01DX009 (ip), vehicle: other): 98 % of control
T/C (dose: 200.0 mg/kg/injection, schedule: Q01DX009 (ip), vehicle: other): 99 % of control
T/C (dose: 400.0 mg/kg/injection, schedule: Q01DX009 (ip), vehicle: other): 107 % of control

Oc1ccccc1OCc1ccccc1
T/C [7]: 107 % of control
T/C [8]: 105 % of control
T/C (dose: 400.0 mg/kg/injection, schedule: Q04DX003 (ip), vehicle: Klucel (hydroxypropylcellulose) (HPC)): 105 % of control

O=C1C(=O)c2ccccc2-c2ccccc21
T/C (dose: 1.56 mg/kg/injection, schedule: Q01DX009 (ip), vehicle: saline with Tween-80): 100 % of control
T/C (dose: 3.13 mg/kg/injection, schedule: Q01DX009 (ip), vehicle: saline with Tween-80): 89 % of control
T/C (dose: 6.25 mg/kg/injection, schedule: Q01DX009 (ip), vehicle: Klucel (hydroxypropylcellulose) (HPC)): 102 % of control
T/C (dose: 6.25 mg/kg/injection, schedule: Q01DX009 (ip), vehicle: saline with Tween-80): 97 % of control
T/C [1]: 101 % of control
T/C (dose: 12.5 mg/kg/injection, schedule: Q01DX009 (ip), vehicle: saline with Tween-80): 100 % of control
T/C (dose: 12.5 mg/kg/injection, schedule: Q04DX003 (ip), vehicle: Klucel (hydroxypropylcellulose) (HPC)): 98 % of control
T/C [2]: 104 % of control
T/C (dose: 25.0 mg/kg/injection, schedule: Q04DX003 (ip), vehicle: Klucel (hydroxypropylcellulose) (HPC)): 89 % of control
T/C [3]: 109 % of control
T/C [9]: 98 % of control
T/C (dose: 50.0 mg/kg/injection, schedule: Q04DX003 (ip), vehicle: saline with Tween-80): 166 % of control
T/C [7]: 89 % of control

CC1(C)C=CC2=C(O1)C(=O)c1ccccc1C2=O
T/C [10]: 104 % of control
T/C [11]: 99 % of control
T/C [12]: 93 % of control
T/C [13]: 91 % of control

Cc1cc2c(cc1C)C(=O)c1ccccc1C2=O
T/C [5]: 91 % of control
T/C [6]: 97 % of control
T/C [14]: 94 % of control

Cc1cc(OC(=O)Nc2cccc(Cl)c2)ccc1[N+](=O)[O-]
T/C [3]: 93 % of control
T/C [9]: 100 % of control
T/C [15]: 86 % of control
T/C [7]: 100 % of control
T/C [8]: 107 % of control

COC(=O)C(CSC(c1ccccc1)(c1ccccc1)c1ccccc1)NC(=O)C(CSCc1ccccc1)NC(=O)CCNC(=O)OCc1ccccc1 (centres undefined) ({Cbz-βAla}-Cys(Bn)-Cys(Trt)-OMe; configuration not given here)
T/C [1]: 86 % of control
T/C [2]: 87 % of control and 92 % of control
T/C [3]: 89 % of control and 120 % of control
T/C (dose: 400.0 mg/kg/injection, schedule: Q01DX009 (ip), vehicle: Klucel (hydroxypropylcellulose) (HPC)): 167 % of control

CCOC(=O)CCc1ccc(O)c(O)c1
T/C (dose: 37.5 mg/kg/injection, schedule: Q04DX003 (ip), vehicle: saline): 102 % of control
T/C [6]: 113 % of control
T/C (dose: 75.0 mg/kg/injection, schedule: Q04DX003 (ip), vehicle: saline): 102 % of control
T/C [14]: 110 % of control
T/C (dose: 150.0 mg/kg/injection, schedule: Q04DX003 (ip), vehicle: saline): 97 % of control
T/C [16]: 97 % of control

CCC[CH2][Sn]1([CH2]CCC)[O]OC2(CCCCC2)[O]1
T/C (dose: 1.25 mg/kg/injection, schedule: Q01DX009 (ip), vehicle: saline with Tween-80): 113 % of control
T/C (dose: 2.5 mg/kg/injection, schedule: Q01DX009 (ip), vehicle: saline with Tween-80): 100 % of control

CCCC1(CCC)CN(C)C1=O
T/C [4]: 91 % of control
T/C [5]: 89 % of control
T/C [6]: 100 % of control
T/C [14]: 106 % of control
T/C [16]: 93 % of control

O=C(O)C1CC[N-]CC1.O=C(O)C1CC[N-]CC1.O=C(O)C1CC[N-]CC1.O=C(O)C1CC[N-]CC1.[Cl][Rh][Cl]
T/C [5]: 104 % of control
T/C [6]: 94 % of control
T/C [14]: 102 % of control

O=C(NO)c1ccncc1
T/C [10]: 96 % of control
T/C [11]: 106 % of control and 111 % of control
T/C [12]: 93 % of control and 105 % of control
T/C [13]: 100 % of control
T/C (dose: 300.0 mg/kg/injection, schedule: Q01DX009 (ip), vehicle: water): 93 % of control
T/C (dose: 400.0 mg/kg/injection, schedule: Q01DX009 (ip), vehicle: water): 100 % of control
T/C (dose: 600.0 mg/kg/injection, schedule: Q01DX009 (ip), vehicle: water): 105 % of control and 107 % of control
T/C (dose: 700.0 mg/kg/injection, schedule: Q01DX009 (ip), vehicle: water): 100 % of control

Cc1c(N)nc(C(CC(N)=O)NCC(N)C(N)=O)nc1C(=O)NC(C(=O)NC(C)C(O)CC(=O)NC(C(=O)NC(OC1OC(C)C(N)C(O)C1O)C(O)c1nc(-c2nc(C(=O)NCCCC(N)CC(=O)NCCCNCCCCN)cs2)cs1)C(C)O)C(OC1OC(CO)C(O)C(O)C1OC1OC(CO)C(O)C(OC(N)=O)C1O)c1cnc[nH]1 (centres undefined)
T/C (dose: 0.2 mg/kg/injection, schedule: Q01DX009 (ip), vehicle: saline): 113 % of control
T/C (dose: 0.8 mg/kg/injection, schedule: Q01DX009 (ip), vehicle: saline): 90 % of control
T/C (dose: 1.6 mg/kg/injection, schedule: Q01DX009 (ip), vehicle: saline): 101 % of control

CC1C2CCC(C2)C1C(=O)O (centres undefined)
T/C (dose: 100.0 mg/kg/injection, schedule: Q04DX003 (ip), vehicle: other): 102 % of control
T/C (dose: 200.0 mg/kg/injection, schedule: Q04DX003 (ip), vehicle: other): 102 % of control
T/C (dose: 400.0 mg/kg/injection, schedule: Q04DX003 (ip), vehicle: other): 89 % of control

Cc1[nH]c(=O)[nH]c(=O)c1C
T/C [9]: 88 % of control
T/C [15]: 88 % of control
T/C [7]: 97 % of control
T/C [17]: 91 % of control
T/C [8]: 91 % of control

CNc1nc(NC)nc(NC)n1
T/C [1]: 106 % of control
T/C [2]: 118 % of control
T/C [3]: 100 % of control
T/C [15]: 109 % of control

Ic1ncnc2c1ncn2C1CCCO1 (centres undefined)
T/C [15]: 118 % of control
T/C [17]: 104 % of control
